Patent US20260285853A1, “COMPOUNDS AND METHODS FOR MODULATING SPLICING” (REMIX THERAPEUTICS INC., priority 2023, published 2026)

Experiments:
Type in all cases: cell-based
[1] = test system: SH-SY5Y (human neuroblastoma) cells; assay: Cell viability, Cell Titer Glo 2.0 assay; conditions: read-out: Viability SHSY5Y.3 GI50
Summary of the method: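 SH-SY5Y neuroblastoma cells are exposed to test compounds for 72 hours at 37 °C and 5% CO2, with final DMSO held at 0.1%. Cell viability is then measured with the CellTiter-Glo 2.0 assay.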

[2] = test system: MYB mRNA; assay: Splicing RT-qPCR assay (THP), Table 2A; conditions: Table 2A, THP; for AC50: MYB alternative junction (AJ) mRNA, read-out: MYB AJ (AC50, increase in alternative junction mRNA); for IC50: MYB canonical junction (CJ) mRNA, read-out: MYB CJ (IC50, decrease in canonical junction mRNA)
[3] = test system: HTT mRNA; assay: Splicing RT-qPCR assay (THP), Table 2A; conditions: Table 2A, THP; for AC50: HTT alternative junction (AJ) mRNA, read-out: HTT AJ (AC50, increase in alternative junction mRNA); for IC50: HTT canonical junction (CJ) mRNA, read-out: HTT CJ (IC50, decrease in canonical junction mRNA)
[4] = test system: HTT mRNA; assay: Gene panel canonical junction qPCR assay, decrease in CJ mRNA, Table 3; conditions: decrease in CJ mRNA levels, canonical junction qPCR, gene panel
Summary of the method: (§1)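 A673 cells were plated, left to adhere for 24 h, then dosed; K562 cells were plated in 96- or 384-well format and dosed directly. Both were incubated 24 h at 37 °C with an 11-point 3-fold series (top 10 uM final). Canonical junction mRNA was then read by cDNA synthesis and qPCR.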

[5] = test system: MYB mRNA; assay: as above; conditions: decrease in CJ mRNA levels, canonical junction qPCR, gene panel
Summary of the method: as §1

Row | Compound | GI50 [1] [nM] | AC50 [2] [nM] | IC50 [2] [nM] | AC50 [3] [nM] | IC50 [3] [nM] | IC50 [4] [nM] | IC50 [5] [nM]
1 | COc1nc2c(C(=O)Nc3cc(F)c4nn(C)cc4c3)ccc(N3C[C@H](C)N(C)[C@@H](C)C3)c2s1 [Compound 767, N-(7-fluoro-2-methyl-indazol-5-yl)-2-methoxy-7-[(3S,5S)-3,4,5-trimethylpiperazin-1-yl]-1,3-benzothiazole-4-carboxamide] | 100 to 1000 | < 100 | < 100 | 1000 to 10000 | 1000 to 10000 | 1000 to 10000 | < 100
2 | COc1nc2c(C(=O)Nc3cc(F)c4nn(C)cc4c3)ccc(N3CCC4(CCCN4)CC3)c2s1 [Compound 768] | 100 to 1000 | < 100 | < 100 | < 100 | < 100 | < 100 | < 100
3 | COc1nc2c(C(=O)Nc3cc(F)c4nn(C)cc4c3)ccc(N3CC[C@@H](NC(C)(C)C)C3)c2s1 [Compound 769] | 100 to 1000 | < 100 | < 100 | 100 to 1000 | 100 to 1000 | 100 to 1000 | < 100
4 | COc1nc2c(C(=O)Nc3cc(F)c4nn(C)cc4c3)ccc(N3CC[C@H](NC(C)(C)C)C3)c2s1 [Compound 770] | 100 to 1000 | 100 to 1000 | 100 to 1000 | 100 to 1000 | 100 to 1000 | 100 to 1000 | 100 to 1000
5 | COc1nc2c(C(=O)Nc3cc(F)c4nn(C)cc4c3)ccc(N3CCNC(C)C3C)c2s1 (stereo not shown) [Compound 771, 7-(2,3-dimethylpiperazin-1-yl)-N-(7-fluoro-2-methyl-indazol-5-yl)-2-methoxy-1,3-benzothiazole-4-carboxamide] | 100 to 1000 | 100 to 1000 | 100 to 1000 | > 10000 | 1000 to 10000 | 1000 to 10000 | 100 to 1000
6 | COc1nc2c(C(=O)Nc3cc(F)c4nn(C)cc4c3)ccc(N3CC(C)NCC3C)c2s1 (stereo not shown) [Compound 772, 7-(2,5-dimethylpiperazin-1-yl)-N-(7-fluoro-2-methyl-indazol-5-yl)-2-methoxy-1,3-benzothiazole-4-carboxamide] | 1000 to 10000 | 100 to 1000 | 1000 to 10000 | > 10000 | > 10000 | > 10000 | 1000 to 10000
7 | Cc1cn2cc(NC(=O)c3ccc(N4CCC(NC5CC5)CC4)c4cn(C)nc34)nc2c(Cn2cccn2)n1 [Compound 773, 4-[4-(cyclopropylamino)-1-piperidyl]-2-methyl-N-[6-methyl-8-(pyrazol-1-ylmethyl)imidazo[1,2-a]pyrazin-2-yl]indazole-7-carboxamide] | 1000 to 10000 | 1000 to 10000 | 1000 to 10000 | 1000 to 10000 | 1000 to 10000 | 1000 to 10000 | 1000 to 10000
8 | Cc1cn2cc(NC(=O)c3ccc(N4CCC(NC5CC5)CC4)c4cn(C)nc34)nc2c(CN2CCCS2(=O)=O)n1 [Compound 774, 4-[4-(cyclopropylamino)-1-piperidyl]-N-[8-[(1,1-dioxo-1,2-thiazolidin-2-yl)methyl]-6-methyl-imidazo[1,2-a]pyrazin-2-yl]-2-methyl-indazole-7-carboxamide] | > 10000 | > 10000 | > 10000 | > 10000 | > 10000 | > 10000 | > 10000
9 | Cc1cn2cc(NC(=O)c3ccc(N4CCC(NC5CC5)CC4)c4cn(C)nc34)nc2c(Cn2cnc(C(N)=O)c2)n1 [Compound 775, N-(8-((4-carbamoyl-1H-imidazol-1-yl)methyl)-6-methylimidazo[1,2-a]pyrazin-2-yl)-4-(4-(cyclopropylamino)piperidin-1-yl)-2-methyl-2H-indazole-7-carboxamide 2,2,2-trifluoroacetate] | > 10000 | > 10000 | > 10000 | > 10000 | > 10000 | > 10000 | > 10000
10 | Cc1cn2cc(NC(=O)c3ccc(N4CCC(NC5CC5)CC4)c4cn(C)nc34)nc2c(CCN(C)C)n1 [Compound 776] | 1000 to 10000 | > 10000 | > 10000 | > 10000 | > 10000 | > 10000 | > 10000
11 | Cc1cn2cc(NC(=O)c3ccc(N4CCC(N(C)C5CC5)CC4)c4cn(C)nc34)nc2c(CNS(C)(=O)=O)n1 [Compound 777] | 1000 to 10000 | 1000 to 10000 | 1000 to 10000 | 1000 to 10000 | 1000 to 10000 | 1000 to 10000 | 1000 to 10000
12 | Cc1cn2cc(NC(=O)c3ccc(N4CCC(NC5CC5)CC4)c4cn(C)nc34)nc2c(CCNS(C)(=O)=O)n1 [Compound 778] | > 10000 | > 10000 | > 10000 | > 10000 | > 10000 | > 10000 | > 10000
13 | CC(=O)NCc1cc(NC(=O)c2ccc(N3CCC(NC4CC4)CC3)c3cn(C)nc23)cc2cn(C)nc12 [Compound 779] | > 10000 | 100 to 1000 | 100 to 1000 | > 10000 | > 10000 | > 10000 | 100 to 1000
14 | Cc1nc2c(C(=O)Nc3cc(F)c4nn(C)cc4c3)ccc(N3C[C@H](C)N[C@@H](C)C3)c2s1 [Compound 780] | < 100 | < 100 | < 100 | 100 to 1000 | 100 to 1000 | 100 to 1000 | < 100
15 | Cc1cn2cc(NC(=O)c3ccc(N4CCC(NC5CC5)CC4)c4cn(C)nc34)nc2c(Cc2cnc(Cl)s2)n1 [Compound 781] | 1000 to 10000 | > 10000 | > 10000 | > 10000 | > 10000 | > 10000 | > 10000
16 | COc1nc2c(C(=O)Nc3cn4c(C)nc(C)cc4n3)ccc(N3C[C@H](C)N[C@@H](C)C3)c2s1 [Compound 782, N-(5,7-dimethylimidazo[1,2-c]pyrimidin-2-yl)-7-[(3S,5S)-3,5-dimethylpiperazin-1-yl]-2-methoxy-1,3-benzothiazole-4-carboxamide] | 1000 to 10000 | 100 to 1000 | 100 to 1000 | > 10000 | > 10000 | > 10000 | 100 to 1000
17 | COc1nc2c(C(=O)Nc3cc(CO)c4nn(C)cc4c3)ccc(N3C[C@H](C)N[C@@H](C)C3)c2s1 [Compound 783, 7-((3S,5S)-3,5-dimethylpiperazin-1-yl)-N-(7-(hydroxymethyl)-2-methyl-2H-indazol-5-yl)-2-methoxybenzo[d]thiazole-4-carboxamide] | 100 to 1000 | < 100 | < 100 | 1000 to 10000 | > 10000 | > 10000 | < 100
18 | COc1nc2c(C(=O)Nc3cc(OC)c4nn(C)cc4c3)ccc(N3C[C@H](C)N[C@@H](C)C3)c2s1 [Compound 784, 7-((3S,5S)-3,5-dimethylpiperazin-1-yl)-2-methoxy-N-(7-methoxy-2-methyl-2H-indazol-5-yl)benzo[d]thiazole-4-carboxamide] | < 100 | < 100 | < 100 | 100 to 1000 | 100 to 1000 | 100 to 1000 | < 100
19 | COc1nc2c(C(=O)Nc3cc(Cl)c4nn(C)cc4c3)ccc(N3C[C@H](C)N[C@@H](C)C3)c2s1 [Compound 785] | < 100 | < 100 | < 100 | 100 to 1000 | 100 to 1000 | 100 to 1000 | < 100
